Source: article PMC5218480 (PLoS ONE, 2017)

Tested on: MV-4-11 cells
Assay: Gene expression microarray analysis (Affymetrix PrimeView) and GSEA
Assay type: cell-based, human
Design: RFU PODN (11730768_x_at) / Fold change /veh PODN (11730768_x_at) / RFU LINC00158 (11744669_a_at) / Fold change /veh LINC00158 (11744669_a_at) / RFU DUSP10 (11751237_a_at) / Fold change /veh DUSP10 (11751237_a_at) / RFU ID3 (11757404_x_at) / Fold change /veh ID3 (11757404_x_at) / RFU PLEKHG5 (11737974_s_at) / Fold change /veh PLEKHG5 (11737974_s_at) / RFU LRRC4B (11730491_at) / Fold change /veh LRRC4B (11730491_at) / RFU GIMAP4 (11747438_a_at) / Fold change /veh GIMAP4 (11747438_a_at) / RFU KRT8 (11758183_x_at) / Fold change /veh KRT8 (11758183_x_at) / RFU CNN1 (11734310_a_at) / Fold change /veh CNN1 (11734310_a_at) / RFU VPS37D (11726825_at) / Fold change /veh VPS37D (11726825_at) / RFU C10orf10 (11716522_x_at) / Fold change /veh C10orf10 (11716522_x_at) / RFU KIR2DL2 /// KIR2DL4 /// KIR2DL5A /// KIR2DL5B /// KIR2DS1 /// KIR2DS2 /// KIR2DS3 /// KIR2DS4 /// KIR3DL3 /// KIR3DL3 /// KIR3DS1 (11738374_at) / Fold change /veh KIR2DL2 /// KIR2DL4 /// KIR2DL5A /// KIR2DL5B /// KIR2DS1 /// KIR2DS2 /// KIR2DS3 /// KIR2DS4 /// KIR3DL3 /// KIR3DL3 /// KIR3DS1 (11738374_at) / RFU C1QL1 (11718748_at) / Fold change /veh C1QL1 (11718748_at) / RFU TMPRSS4 (11747572_a_at) / Fold change /veh TMPRSS4 (11747572_a_at) / RFU HAMP (11756126_x_at) / Fold change /veh HAMP (11756126_x_at) / RFU RNFT2 (11725882_a_at) / Fold change /veh RNFT2 (11725882_a_at) / RFU NR4A2 (11747474_a_at) / Fold change /veh NR4A2 (11747474_a_at) / RFU ABCC12 (11746883_a_at) / Fold change /veh ABCC12 (11746883_a_at) / RFU TMEM136 (11760407_x_at) / Fold change /veh TMEM136 (11760407_x_at) / RFU CLDN22 /// WWC2 (11732394_at) / Fold change /veh CLDN22 /// WWC2 (11732394_at) / RFU HLA-DPB1 (11760878_x_at) / Fold change /veh HLA-DPB1 (11760878_x_at) / RFU SPINT1 (11716480_a_at) / Fold change /veh SPINT1 (11716480_a_at) / RFU GAP43 (11754022_s_at) / Fold change /veh GAP43 (11754022_s_at) / RFU A4GNT (11735810_at) / Fold change /veh A4GNT (11735810_at) / RFU PRB3 (11715151_x_at) / Fold change /veh PRB3 (11715151_x_at) / RFU TUBB4B (11761932_at) / Fold change /veh TUBB4B (11761932_at) / RFU CAPN14 (11732068_a_at) / Fold change /veh CAPN14 (11732068_a_at) / RFU TMCC2 (11721928_a_at) / Fold change /veh TMCC2 (11721928_a_at) / RFU IRGQ (11745062_a_at) / Fold change /veh IRGQ (11745062_a_at) / RFU FAM174B (11720279_a_at) / Fold change /veh FAM174B (11720279_a_at) / RFU TMPRSS4 (11748680_a_at) / Fold change /veh TMPRSS4 (11748680_a_at) / RFU FAM212B (11763350_a_at) / Fold change /veh FAM212B (11763350_a_at) / RFU PLEKHG5 (11743358_a_at) / Fold change /veh PLEKHG5 (11743358_a_at) / RFU ZSCAN30 (11745921_a_at) / Fold change /veh ZSCAN30 (11745921_a_at) / RFU CMKLR1 (11741424_a_at) / Fold change /veh CMKLR1 (11741424_a_at) / RFU LOC101060620 /// MAPK8IP1 (11723275_at) / Fold change /veh LOC101060620 /// MAPK8IP1 (11723275_at) / RFU SPTSSB (11747773_x_at) / Fold change /veh SPTSSB (11747773_x_at) / RFU PRSS12 (11739890_at) / Fold change /veh PRSS12 (11739890_at) / RFU BIN1 (11741810_x_at) / Fold change /veh BIN1 (11741810_x_at) / RFU WNT11 (11732464_a_at) / Fold change /veh WNT11 (11732464_a_at) / RFU C10orf10 (11716521_a_at) / Fold change /veh C10orf10 (11716521_a_at) / RFU C5orf56 (11738089_at) / Fold change /veh C5orf56 (11738089_at) / RFU CYB561 (11721691_x_at) / Fold change /veh CYB561 (11721691_x_at) / RFU ANKRD19P (11752326_a_at) / Fold change /veh ANKRD19P (11752326_a_at) / RFU OR2T12 /// OR2T33 /// OR2T8 (11738714_s_at) / Fold change /veh OR2T12 /// OR2T33 /// OR2T8 (11738714_s_at) / RFU VCAN (11748164_a_at) / Fold change /veh VCAN (11748164_a_at) / RFU JSRP1 (11732532_at) / Fold change /veh JSRP1 (11732532_at) / RFU KRTAP10-11 (11738290_x_at) / Fold change /veh KRTAP10-11 (11738290_x_at) / RFU MYO3A (11730013_a_at) / Fold change /veh MYO3A (11730013_a_at) / RFU EBF3 (11725865_a_at) / Fold change /veh EBF3 (11725865_a_at) / RFU CAMK2N1 (11719241_x_at) / Fold change /veh CAMK2N1 (11719241_x_at) / RFU C5orf56 (11738088_a_at) / Fold change /veh C5orf56 (11738088_a_at) / RFU OLFML3 (11715873_a_at) / Fold change /veh OLFML3 (11715873_a_at) / RFU LOC100653217 /// NTM (11731650_a_at) / Fold change /veh LOC100653217 /// NTM (11731650_a_at) / RFU MAPK11 (11762145_a_at) / Fold change /veh MAPK11 (11762145_a_at) / RFU FIZ1 (11724087_x_at) / Fold change /veh FIZ1 (11724087_x_at) / RFU OASL (11726364_x_at) / Fold change /veh OASL (11726364_x_at) / RFU SOX15 (11748057_x_at) / Fold change /veh SOX15 (11748057_x_at) / RFU CD79A (11719716_a_at) / Fold change /veh CD79A (11719716_a_at) / RFU HIST1H1D (11736915_at) / Fold change /veh HIST1H1D (11736915_at) / RFU CASKIN2 (11723855_a_at) / Fold change /veh CASKIN2 (11723855_a_at) / RFU LOC730098 (11760151_x_at) / Fold change /veh LOC730098 (11760151_x_at) / RFU OR4N2 (11742367_at) / Fold change /veh OR4N2 (11742367_at) / RFU PRRT2 (11749266_a_at) / Fold change /veh PRRT2 (11749266_a_at) / RFU SNX32 (11753110_a_at) / Fold change /veh SNX32 (11753110_a_at) / RFU CDHR5 (11726645_a_at) / Fold change /veh CDHR5 (11726645_a_at) / RFU RCAN1 (11760418_a_at) / Fold change /veh RCAN1 (11760418_a_at) / RFU FAM167A (11723789_a_at) / Fold change /veh FAM167A (11723789_a_at) / RFU FAM26E (11764081_at) / Fold change /veh FAM26E (11764081_at) / RFU ISYNA1 (11749810_s_at) / Fold change /veh ISYNA1 (11749810_s_at) / RFU ACY1 (11761880_at) / Fold change /veh ACY1 (11761880_at) / RFU 11764098_at / Fold change /veh 11764098_at / RFU SAMD14 (11745864_x_at) / Fold change /veh SAMD14 (11745864_x_at) / RFU NPB (11741838_a_at) / Fold change /veh NPB (11741838_a_at) / RFU TMPRSS6 (11731388_a_at) / Fold change /veh TMPRSS6 (11731388_a_at) / RFU KRTAP10-2 (11738614_at) / Fold change /veh KRTAP10-2 (11738614_at) / RFU ARHGAP8 /// PRR5-ARHGAP8 (11727945_x_at) / Fold change /veh ARHGAP8 /// PRR5-ARHGAP8 (11727945_x_at) / RFU KRTAP5-7 /// NADSYN1 (11734609_at) / Fold change /veh KRTAP5-7 /// NADSYN1 (11734609_at) / RFU RASL12 (11751679_a_at) / Fold change /veh RASL12 (11751679_a_at) / RFU CDKN2B (11736163_a_at) / Fold change /veh CDKN2B (11736163_a_at) / RFU PRF1 (11729649_at) / Fold change /veh PRF1 (11729649_at) / RFU, ZNF638 /// ZNF638-IT1 / Fold change vs veh, ZNF638 /// ZNF638-IT1 / RFU, PANK3 / Fold change vs veh, PANK3 / RFU, SH3YL1 / Fold change vs veh, SH3YL1 / RFU, ZEB2 / Fold change vs veh, ZEB2 / RFU, NRIP1 / Fold change vs veh, NRIP1 / RFU, PTTG1IP / Fold change vs veh, PTTG1IP / RFU, CAPN2 / Fold change vs veh, CAPN2 / RFU, MED14 / Fold change vs veh, MED14 / RFU, SNORA58 / Fold change vs veh, SNORA58 / RFU, C1orf63 / Fold change vs veh, C1orf63 / RFU, LRRFIP1 / Fold change vs veh, LRRFIP1 / RFU, NDUFAF7 / Fold change vs veh, NDUFAF7 / RFU, SLC12A2 / Fold change vs veh, SLC12A2 / RFU, IBTK / Fold change vs veh, IBTK / RFU, ESF1 / Fold change vs veh, ESF1 / Fold change vs veh, TMEM50B / RFU, TAOK1 / Fold change vs veh, TAOK1 / RFU, ACBD3 / Fold change vs veh, ACBD3 / RFU, TMA16 / Fold change vs veh, TMA16 / RFU, RWDD3 / Fold change vs veh, RWDD3 / RFU, BCAT1 / Fold change vs veh, BCAT1 / RFU, EDEM3 / Fold change vs veh, EDEM3 / RFU, TMEM33 / Fold change vs veh, TMEM33 / RFU, WDR75 / Fold change vs veh, WDR75 / RFU, AHCTF1 / Fold change vs veh, AHCTF1 / RFU, TFRC / Fold change vs veh, TFRC / RFU, ZDHHC17 / Fold change vs veh, ZDHHC17 / RFU, NOM1 / Fold change vs veh, NOM1 / RFU, ARL8B / Fold change vs veh, ARL8B / RFU, ZBTB11 / Fold change vs veh, ZBTB11 / RFU, TAMM41 / Fold change vs veh, TAMM41 / RFU, KIAA1704 /// LOC100996395 / Fold change vs veh, KIAA1704 /// LOC100996395 / RFU, ING1 / Fold change vs veh, ING1 / RFU, TRMT61B / Fold change vs veh, TRMT61B / RFU, FUBP3 / Fold change vs veh, FUBP3 / RFU, TP53 / Fold change vs veh, TP53 / RFU, TNKS2 / Fold change vs veh, TNKS2 / RFU, ZFP14 / Fold change vs veh, ZFP14 / RFU, ACTR2 / Fold change vs veh, ACTR2 / RFU, PPP3R1 / Fold change vs veh, PPP3R1 / RFU, PIK3R1 / Fold change vs veh, PIK3R1 / RFU, HNRNPA1 / Fold change vs veh, HNRNPA1 / RFU, RNF170 / Fold change vs veh, RNF170 / RFU, ZNF28 / Fold change vs veh, ZNF28 / RFU, RNGTT / Fold change vs veh, RNGTT / RFU, OGT / Fold change vs veh, OGT / RFU, BRD1 / Fold change vs veh, BRD1 / RFU, MARS / Fold change vs veh, MARS / RFU, ZNF655 / Fold change vs veh, ZNF655 / RFU, FAHD1 / Fold change vs veh, FAHD1 / RFU, BDP1 / Fold change vs veh, BDP1 / RFU, LRRCC1 / Fold change vs veh, LRRCC1 / RFU, ARID1A / Fold change vs veh, ARID1A / RFU, ZNF146 / Fold change vs veh, ZNF146 / RFU, ZNF330 / Fold change vs veh, ZNF330 / RFU, GPN3 / Fold change vs veh, GPN3 / RFU, C9orf123 / Fold change vs veh, C9orf123 / RFU, N4BP2L2 / Fold change vs veh, N4BP2L2 / RFU, ARFIP1 / Fold change vs veh, ARFIP1 / RFU, FAM179B / Fold change vs veh, FAM179B / RFU, BCL10 / Fold change vs veh, BCL10 / RFU, UHRF1BP1L / Fold change vs veh, UHRF1BP1L / RFU, BET1 / Fold change vs veh, BET1 / RFU, CNOT2 / Fold change vs veh, CNOT2 / RFU, ZNF268 / Fold change vs veh, ZNF268 / Fold change vs veh, ZNF507 / RFU, DGCR2 / Fold change vs veh, DGCR2 / RFU, WDSUB1 / Fold change vs veh, WDSUB1 / Fold change vs veh, HSP90B1 /// MIR3652 / RFU, ADSS / Fold change vs veh, ADSS / RFU, GK / Fold change vs veh, GK / RFU, ZNF148 / Fold change vs veh, ZNF148 / RFU, TAF9 / Fold change vs veh, TAF9 / RFU, SLC1A5 / Fold change vs veh, SLC1A5 / RFU, SLMO2 / Fold change vs veh, SLMO2 / RFU, ABCC4 / Fold change vs veh, ABCC4 / RFU, LOC101060439 /// RAP1B / Fold change vs veh, LOC101060439 /// RAP1B / RFU, RFX7 / Fold change vs veh, RFX7 / RFU, GTPBP10 / Fold change vs veh, GTPBP10 / RFU, CNEP1R1 / Fold change vs veh, CNEP1R1 / RFU, BIVM-ERCC5 /// ERCC5 / Fold change vs veh, BIVM-ERCC5 /// ERCC5 / RFU, ILF3 / Fold change vs veh, ILF3 / RFU 11762660_at / Fold change /veh 11762660_at / RFU VCAN (11757783_s_at) / Fold change /veh VCAN (11757783_s_at) / RFU DDX43 (11728927_at) / Fold change /veh DDX43 (11728927_at) / RFU KRT8 (11758188_x_at) / Fold change /veh KRT8 (11758188_x_at) / RFU NKD1 (11759106_at) / Fold change /veh NKD1 (11759106_at) / RFU SRD5A1 (11742802_a_at) / Fold change /veh SRD5A1 (11742802_a_at) / RFU TPSAB1 /// TPSB2 (11721975_s_at) / Fold change /veh TPSAB1 /// TPSB2 (11721975_s_at) / RFU GSTM3 (11746129_a_at) / Fold change /veh GSTM3 (11746129_a_at) / RFU IL23R (11737362_x_at) / Fold change /veh IL23R (11737362_x_at) / RFU TMEM51 (11727254_a_at) / Fold change /veh TMEM51 (11727254_a_at) / RFU PIWIL2 (11732686_x_at) / Fold change /veh PIWIL2 (11732686_x_at) / RFU ORM1 (11744905_x_at) / Fold change /veh ORM1 (11744905_x_at) / RFU CCDC152 (11743942_at) / Fold change /veh CCDC152 (11743942_at) / RFU ECM1 (11717891_a_at) / Fold change /veh ECM1 (11717891_a_at) / RFU IL23R (11748794_a_at) / Fold change /veh IL23R (11748794_a_at) / RFU TNFAIP8L3 (11732012_x_at) / Fold change /veh TNFAIP8L3 (11732012_x_at) / RFU MBOAT4 (11741988_at) / Fold change /veh MBOAT4 (11741988_at) / RFU 11764193_at / Fold change /veh 11764193_at / RFU TMEM53 (11763286_at) / Fold change /veh TMEM53 (11763286_at) / RFU MAGEB2 (11727129_at) / Fold change /veh MAGEB2 (11727129_at) / RFU TMEM200A (11744735_a_at) / Fold change /veh TMEM200A (11744735_a_at) / RFU CCDC152 (11751479_a_at) / Fold change /veh CCDC152 (11751479_a_at) / RFU FAM211A (11726209_a_at) / Fold change /veh FAM211A (11726209_a_at) / RFU RGS16 (11746705_a_at) / Fold change /veh RGS16 (11746705_a_at) / RFU VCAN (11755009_s_at) / Fold change /veh VCAN (11755009_s_at) / RFU RHOB (11743442_s_at) / Fold change /veh RHOB (11743442_s_at) / RFU RGS16 (11720943_a_at) / Fold change /veh RGS16 (11720943_a_at) / RFU RGS16 (11720944_at) / Fold change /veh RGS16 (11720944_at) / RFU, VPS4B / Fold change vs veh, VPS4B / RFU, CREB1 / Fold change vs veh, CREB1 / RFU, DNAJC13 / Fold change vs veh, DNAJC13 / RFU, GNAQ / Fold change vs veh, GNAQ / RFU, CDK5R1 / Fold change vs veh, CDK5R1 / RFU, ZRANB3 / Fold change vs veh, ZRANB3 / RFU, CUL4A / Fold change vs veh, CUL4A / RFU, CCNY / Fold change vs veh, CCNY / RFU, UFL1 / Fold change vs veh, UFL1 / RFU, COG3 / Fold change vs veh, COG3 / RFU, DIAPH2 / Fold change vs veh, DIAPH2 / RFU, SKA2 / Fold change vs veh, SKA2 / RFU, AFF3 / Fold change vs veh, AFF3 / RFU, LMF1 / Fold change vs veh, LMF1 / RFU, IPO11 / Fold change vs veh, IPO11 / RFU, DFFB / Fold change vs veh, DFFB / RFU, FOXP1 / Fold change vs veh, FOXP1 / RFU, CARD8 / Fold change vs veh, CARD8 / RFU, STRN3 / Fold change vs veh, STRN3 / RFU, ADK / Fold change vs veh, ADK / RFU, RASSF2 / Fold change vs veh, RASSF2 / RFU, WIPF1 / Fold change vs veh, WIPF1 / RFU, LARP1B / Fold change vs veh, LARP1B / RFU, RASA1 / Fold change vs veh, RASA1 / RFU, RB1 / Fold change vs veh, RB1 / RFU, PPFIA1 / Fold change vs veh, PPFIA1 / RFU, MAT2A / Fold change vs veh, MAT2A / RFU, CCT5 / Fold change vs veh, CCT5 / RFU, WDR92 / Fold change vs veh, WDR92 / RFU, CUX1 / Fold change vs veh, CUX1 / RFU, TTC7A / Fold change vs veh, TTC7A / RFU, TMEM135 / Fold change vs veh, TMEM135 / RFU, DEPTOR / Fold change vs veh, DEPTOR / RFU, CPM / Fold change vs veh, CPM / RFU, DNAJB6 / Fold change vs veh, DNAJB6 / RFU, CACNA2D3 / Fold change vs veh, CACNA2D3 / RFU, DTX4 / Fold change vs veh, DTX4 / RFU, TFCP2 / Fold change vs veh, TFCP2 / RFU, GMCL1 /// GMCL1P1 / Fold change vs veh, GMCL1 /// GMCL1P1 / RFU, AEBP2 / Fold change vs veh, AEBP2 / RFU, SNHG1 /// SNORD22 /// SNORD25 /// SNORD26 /// SNORD27 /// SNORD28 /// SNORD29 /// SNORD31 / Fold change vs veh, SNHG1 /// SNORD22 /// SNORD25 /// SNORD26 /// SNORD27 /// SNORD28 /// SNORD29 /// SNORD31 / Fold change (Aza/veh), C12orf56 (ProbeSet 11735607_a_at) / Fold change (ACY-1035/veh), C12orf56 (ProbeSet 11735607_a_at) / Fold change (Aza/veh), FGFR1OP (ProbeSet 11751329_s_at) / Fold change (ACY-1035/veh), FGFR1OP (ProbeSet 11751329_s_at) / Fold change (Aza/veh), VPS36 (ProbeSet 11739960_a_at) / Fold change (ACY-1035/veh), VPS36 (ProbeSet 11739960_a_at) / RFU SYPL1 (11715823_x_at) / Fold change /veh SYPL1 (11715823_x_at) / RFU IGFBP7 (11715501_s_at) / Fold change /veh IGFBP7 (11715501_s_at) / RFU REEP3 (11722064_at) / Fold change /veh REEP3 (11722064_at) / RFU IGLL1 (11728026_x_at) / Fold change /veh IGLL1 (11728026_x_at): dose or concentration left out as unconfirmed
Conditions: ProbeSet 11747937_a_at; LIST D

SMILES: Nc1ncn([C@@H]2O[C@H](CO)[C@@H](O)[C@H]2O)c(=O)n1 [azacitidine]
- RFU, DNAJB6: 212.79 RFU
